In paper PMC9036627, “Global update on the susceptibility of human influenza viruses to neuraminidase inhibitors, 2013–2014” (Antiviral research, 2015):

Columns and labels:
[1] = tested on: neuraminidase (NA) of B/Victoria-lineage viruses; assay type: biochemical, influenza B/Victoria-lineage virus
[2] = tested on: neuraminidase (NA) of B/Yamagata-lineage viruses; assay type: biochemical, influenza B/Yamagata-lineage virus
[3] = tested on: neuraminidase (NA) of A(H1N1)pdm09 viruses; assay type: biochemical, influenza A(H1N1)pdm09 virus
[4] = tested on: former seasonal A(H1N1) H275Y virus; conditions: ref Kawai et al., 2009, Dharan et al., 2010, Matsuzaki et al., Saito et al.; cited from earlier work
[5] = tested on: former seasonal A(H1N1) H275Y virus; conditions: ref Kawai et al., 2009, Dharan et al., 2010, Matsuzaki et al., Saito et al.; cited from earlier work; remark: listed apart in the source

Q: Which “inhibition category (HRI/RI/NI)” value [1] does the source give for `[H]/N=C(\N)N[C@H]1C=C(C(=O)O)O[C@@H]([C@H](OC)[C@H](O)CO)[C@@H]1NC(C)=O` [Laninamivir, laninamivir] here?
A: The value was “HRI (key: NI < 5-fold; RI 5 to 50-fold; HRI > 50-fold)”.

Q: And the “effect of NA substitution on susceptibility” value (shortened to “effect of NA substitution”) [2]?
A: Its value is “no effect”.

Q: And the “Included in phenotypic analysis: inhibition category (HRI/RI/NI)” value [3]?
A: The value was “RI (key: NI < 10-fold; RI 10 to 100-fold; HRI > 100-fold)”.

Q: What about the “effect of NA substitution” value [3] of the same molecule?
A: The value was “little or no effect”.

Q: For `CCOC(=O)C1=C[C@@H](OC(CC)CC)[C@H](NC(C)=O)[C@@H](N)C1` [Oseltamivir, oseltamivir], which “inhibition category in vitro” value [4] is on record?
A: Its value is “HRI (HRI > 100-fold)”.

Q: What about the “inhibition category (HRI/RI/NI)” value [1] of the same molecule?
A: The value was “RI (key: NI < 5-fold; RI 5 to 50-fold; HRI > 50-fold)”.

Q: And the “inhibition category (HRI/RI/NI)” value [2]?
A: The value was “RI (key: NI < 5-fold; RI 5 to 50-fold; HRI > 50-fold)”.

Q: What about the clinical resistance [5] of the same molecule?
A: Its clinical resistance is “clinically resistant”.

Q: Which results are given for `CCC(CC)[C@H](NC(C)=O)[C@@H]1[C@H](O)[C@@H](C(=O)O)C[C@H]1N=C(N)N` [Peramivir, peramivir]?
A: inhibition category in vitro [4]: HRI (HRI > 100-fold); inhibition category (HRI/RI/NI) [1]: HRI (key: NI < 5-fold; RI 5 to 50-fold; HRI > 50-fold)

Q: With `CC(=O)N[C@H]1[C@H]([C@H](O)[C@H](O)CO)OC(C(=O)O)=C[C@@H]1N=C(N)N` [Zanamivir, zanamivir] as the molecule, how does the “inhibition category (HRI/RI/NI)” value [1] read?
A: Its value is “HRI (key: NI < 5-fold; RI 5 to 50-fold; HRI > 50-fold)”.

Q: And the “effect of NA substitution” value [2]?
A: Its value is “no effect”.

Q: And the “effect of NA substitution” value [3]?
A: Its value is “little or no effect”.
